Columns and labels:
Assay in all cases: relative viability (nuclei count vs DMSO), 5 days (fraction); higher = more cells survive
H3255 = tested on: H3255
Summary of the method: (§1)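 Five library-drug doses in √10 steps were combined with a fixed anchor-drug dose, or a single drug was given alone, by pin tool to lung cancer cell lines in 1536-well plates the day after seeding. Nuclei were stained and counted after 5 days. Relative viability is the nuclei count in treated wells over that in vehicle wells, taken as the median of duplicate plates.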

PC-14 = tested on: PC-14
Summary of the method: as §1

NCI-H2023 = tested on: NCI-H2023
Summary of the method: as §1

NCI-H2085 = tested on: NCI-H2085
Summary of the method: as §1

HOP-62 = tested on: HOP-62
Summary of the method: as §1

NCI-H2009 = tested on: NCI-H2009
Summary of the method: as §1

NCI-H1915 = tested on: NCI-H1915
Summary of the method: as §1

NCI-H661 = tested on: NCI-H661
Summary of the method: as §1

SK-LU-1 = tested on: SK-LU-1
Summary of the method: as §1

EPLC-272H = tested on: EPLC-272H
Summary of the method: as §1

LCLC-97TM1 = tested on: LCLC-97TM1
Summary of the method: as §1

NCI-H1993 = tested on: NCI-H1993
Summary of the method: as §1

NCI-H2126 = tested on: NCI-H2126
Summary of the method: as §1

NCI-H727 = tested on: NCI-H727
Summary of the method: as §1

NCI-H322M = tested on: NCI-H322M
Summary of the method: as §1

SW 1573 = tested on: SW 1573
Summary of the method: as §1

EMC-BAC-2 = tested on: EMC-BAC-2
Summary of the method: as §1

NCI-H1563 = tested on: NCI-H1563
Summary of the method: as §1

LXF-289 = tested on: LXF-289
Summary of the method: as §1

NCI-H2347 = tested on: NCI-H2347
Summary of the method: as §1

NCI-H647 = tested on: NCI-H647
Summary of the method: as §1

In the case of `CC1(C)CCC(c2ccc(Cl)cc2)=C(CN2CCN(c3ccc(C(=O)NS(=O)(=O)c4ccc(N[C@H](CCN5CCOCC5)CSc5ccccc5)c(S(=O)(=O)C(F)(F)F)c4)cc3)CC2)C1` [Navitoclax] + C[C@]1(O)C[C@@H](c2nc(-c3ccc4ccc(-c5ccccc5)nc4c3)c3c(N)nccn32)C1 [Linsitinib] (partner 1 µM), the relative viability (H3255; first compound 0.005 µM) is reported as 0.917, the relative viability (H3255; first compound 0.01581 µM) is reported as 1.12 and the relative viability (H3255; first compound 0.05 µM) is reported as 0.877. For the same compound, the relative viability (H3255; first compound 0.1581 µM) was 0.892, the relative viability (H3255; first compound 0.5 µM) was 0.89 and the relative viability (PC-14; first compound 0.005 µM) was 1.03. For the same compound, the relative viability (PC-14; first compound 0.01581 µM) was 1.04, the relative viability (PC-14; first compound 0.05 µM) was 1.07 and the relative viability (PC-14; first compound 0.1581 µM) was 0.926. It also gave a relative viability (PC-14; first compound 0.5 µM) of 0.977, a relative viability (NCI-H2023; first compound 0.005 µM) of 0.625 and a relative viability (NCI-H2023; first compound 0.01581 µM) of 0.713. The relative viability (NCI-H2023; first compound 0.05 µM) was 0.716, the relative viability (NCI-H2023; first compound 0.1581 µM) was 0.766 and the relative viability (NCI-H2023; first compound 0.5 µM) was 0.647. For the same compound, the relative viability (NCI-H2085; first compound 0.005 µM) was 0.828, the relative viability (NCI-H2085; first compound 0.01581 µM) was 0.96 and the relative viability (NCI-H2085; first compound 0.05 µM) was 0.831. It also gave a relative viability (NCI-H2085; first compound 0.1581 µM) of 1, a relative viability (NCI-H2085; first compound 0.5 µM) of 0.947 and a relative viability (HOP-62; first compound 0.005 µM) of 0.976. For the same compound, the relative viability (HOP-62; first compound 0.01581 µM) was 0.871, the relative viability (HOP-62; first compound 0.05 µM) was 0.955 and the relative viability (HOP-62; first compound 0.1581 µM) was 0.767. For the same compound, the relative viability (HOP-62; first compound 0.5 µM) was 0.923, the relative viability (NCI-H2009; first compound 0.005 µM) was 1.08 and the relative viability (NCI-H2009; first compound 0.01581 µM) was 1.25. For the same compound, the relative viability (NCI-H2009; first compound 0.05 µM) was 1.16, the relative viability (NCI-H2009; first compound 0.1581 µM) was 1.18 and the relative viability (NCI-H2009; first compound 0.5 µM) was 1.31. For the same compound, the relative viability (NCI-H1915; first compound 0.005 µM) was 1.1, the relative viability (NCI-H1915; first compound 0.01581 µM) was 1.12 and the relative viability (NCI-H1915; first compound 0.05 µM) was 1.07. For the same compound, the relative viability (NCI-H1915; first compound 0.1581 µM) was 1.05, the relative viability (NCI-H1915; first compound 0.5 µM) was 1.06 and the relative viability (NCI-H661; first compound 0.005 µM) was 0.524. The relative viability (NCI-H661; first compound 0.01581 µM) was 0.601, the relative viability (NCI-H661; first compound 0.05 µM) was 0.575 and the relative viability (NCI-H661; first compound 0.1581 µM) was 0.552. It also gave a relative viability (NCI-H661; first compound 0.5 µM) of 0.5, a relative viability (SK-LU-1; first compound 0.005 µM) of 1.07 and a relative viability (SK-LU-1; first compound 0.01581 µM) of 1.25. The relative viability (SK-LU-1; first compound 0.05 µM) was 1.2, the relative viability (SK-LU-1; first compound 0.1581 µM) was 1.08 and the relative viability (SK-LU-1; first compound 0.5 µM) was 0.773. For the same compound, the relative viability (EPLC-272H; first compound 0.005 µM) was 1.29, the relative viability (EPLC-272H; first compound 0.1581 µM) was 1.26 and the relative viability (EPLC-272H; first compound 0.5 µM) was 0.997. The relative viability (LCLC-97TM1; first compound 0.005 µM) was 0.189, the relative viability (LCLC-97TM1; first compound 0.01581 µM) was 0.186 and the relative viability (LCLC-97TM1; first compound 0.05 µM) was 0.193. For the same compound, the relative viability (LCLC-97TM1; first compound 0.1581 µM) was 0.18, the relative viability (LCLC-97TM1; first compound 0.5 µM) was 0.172 and the relative viability (NCI-H1993; first compound 0.005 µM) was 0.721. The relative viability (NCI-H1993; first compound 0.01581 µM) was 0.752, the relative viability (NCI-H1993; first compound 0.05 µM) was 0.706 and the relative viability (NCI-H1993; first compound 0.1581 µM) was 0.672. The relative viability (NCI-H1993; first compound 0.5 µM) was 0.675, the relative viability (NCI-H2126; first compound 0.005 µM) was 0.708 and the relative viability (NCI-H2126; first compound 0.01581 µM) was 0.748. It also gave a relative viability (NCI-H2126; first compound 0.05 µM) of 0.786, a relative viability (NCI-H2126; first compound 0.1581 µM) of 0.661 and a relative viability (NCI-H2126; first compound 0.5 µM) of 0.725. It also gave a relative viability (NCI-H727; first compound 0.005 µM) of 0.299, a relative viability (NCI-H727; first compound 0.01581 µM) of 0.358 and a relative viability (NCI-H727; first compound 0.1581 µM) of 0.284. It also gave a relative viability (NCI-H727; first compound 0.5 µM) of 0.162, a relative viability (NCI-H322M; first compound 0.005 µM) of 0.79 and a relative viability (NCI-H322M; first compound 0.01581 µM) of 0.992. For the same compound, the relative viability (NCI-H322M; first compound 0.05 µM) was 0.96, the relative viability (NCI-H322M; first compound 0.1581 µM) was 0.953 and the relative viability (NCI-H322M; first compound 0.5 µM) was 0.921. It also gave a relative viability (SW 1573; first compound 0.005 µM) of 0.856, a relative viability (SW 1573; first compound 0.01581 µM) of 0.841 and a relative viability (SW 1573; first compound 0.05 µM) of 0.747. For the same compound, the relative viability (SW 1573; first compound 0.1581 µM) was 0.798, the relative viability (SW 1573; first compound 0.5 µM) was 0.898 and the relative viability (EMC-BAC-2; first compound 0.005 µM) was 0.759. It also gave a relative viability (EMC-BAC-2; first compound 0.01581 µM) of 0.895, a relative viability (EMC-BAC-2; first compound 0.05 µM) of 0.809 and a relative viability (EMC-BAC-2; first compound 0.1581 µM) of 0.78. The relative viability (EMC-BAC-2; first compound 0.5 µM) was 0.83, the relative viability (NCI-H1563; first compound 0.005 µM) was 0.99 and the relative viability (NCI-H1563; first compound 0.01581 µM) was 1.13. It also gave a relative viability (NCI-H1563; first compound 0.05 µM) of 1.17, a relative viability (NCI-H1563; first compound 0.1581 µM) of 1.24 and a relative viability (NCI-H1563; first compound 0.5 µM) of 1.27. It also gave a relative viability (LXF-289; first compound 0.005 µM) of 0.971, a relative viability (LXF-289; first compound 0.01581 µM) of 0.974 and a relative viability (LXF-289; first compound 0.05 µM) of 0.84. The relative viability (LXF-289; first compound 0.1581 µM) was 0.978, the relative viability (LXF-289; first compound 0.5 µM) was 0.966 and the relative viability (NCI-H2347; first compound 0.005 µM) was 0.94. For the same compound, the relative viability (NCI-H2347; first compound 0.01581 µM) was 1.03, the relative viability (NCI-H2347; first compound 0.05 µM) was 0.876 and the relative viability (NCI-H2347; first compound 0.1581 µM) was 0.954. The relative viability (NCI-H2347; first compound 0.5 µM) was 0.973, the relative viability (NCI-H647; first compound 0.005 µM) was 1.05 and the relative viability (NCI-H647; first compound 0.01581 µM) was 1.12. It also gave a relative viability (NCI-H647; first compound 0.05 µM) of 1.23, a relative viability (NCI-H647; first compound 0.1581 µM) of 1.17 and a relative viability (NCI-H647; first compound 0.5 µM) of 1.05.

From the supplement of paper PMC10307832
